Test results reported in patent publication US10202380B2, “Pesticidally active tetracyclic derivatives with sulfur containing substituents” (Syngenta Participations AG, priority 2015, dated 2019).

Key:
Type in all cases: in vivo
Diabrotica balteata = Diabrotica balteata (Corn Root Worm); conditions: 96 h, read-out: effect in at least one of the two categories (mortality or growth inhibition)
Procedure: Maize sprouts placed onto an agar layer in 24-well microtiter plates were treated with aqueous test solutions prepared from 10,000 ppm DMSO stock solutions by spraying. After drying, the plates were infested with L2 larvae (6 to 10 per well). The samples were assessed for mortality and growth inhibition in comparison to untreated samples 4 days after infestation.

Plutella xylostella = Plutella xylostella (Diamond Back Moth); conditions: 120 h, read-out: effect in at least one of the two categories (mortality or growth inhibition)
Procedure: 24-well microtiter plates with artificial diet were treated with aqueous test solutions prepared from 10,000 ppm DMSO stock solutions by pipetting. After drying, the plates were infested with L2 larvae (10 to 15 per well). The samples were assessed for mortality and growth inhibition in comparison to untreated samples 5 days after infestation.

Myzus persicae = Myzus persicae (Green Peach Aphid): Feeding/Contact Activity; conditions: foliar, 144 h
Procedure: Sunflower leaf discs were placed onto agar in a 24-well microtiter plate and sprayed with aqueous test solutions prepared from 10,000 ppm DMSO stock solutions. After drying, the leaf discs were infested with an aphid population of mixed ages. The samples were assessed for mortality 6 days after infestation.

Euschistus heros = Euschistus heros (Neotropical Brown Stink Bug); conditions: in Glycine max, 120 h, read-out: effect in at least one of the two categories (mortality or growth inhibition)
Procedure: Soybean leaves on agar in 24-well microtiter plates were sprayed with aqueous test solutions prepared from 10,000 ppm DMSO stock solutions. After drying the leaves were infested with N2 nymphs. The samples were assessed for mortality and growth inhibition in comparison to untreated samples 5 days after infestation.

Spodoptera littoralis [1] = test: Spodoptera littoralis (Egyptian Cotton Leaf Worm), sprayed cotton leaf discs; conditions: foliar, 72 h, read-out: control (mortality, anti-feedant effect, growth inhibition)
Procedure: Cotton leaf discs were placed onto agar in 24-well microtiter plates and sprayed with aqueous test solutions prepared from 10,000 ppm DMSO stock solutions. After drying the leaf discs were infested with five L1 larvae. The samples were assessed for mortality, anti-feeding effect, and growth inhibition in comparison to untreated samples 3 days after infestation. Control of Spodoptera littoralis by a test sample is given when at least one of the categories mortality, anti-feedant effect, and growth inhibition is higher than the untreated sample.

Spodoptera littoralis [2] = test: Spodoptera littoralis (Egyptian Cotton Leaf Worm), compound in agar absorbed by lettuce roots; conditions: 144 h, read-out: effect in at least one of the three categories (mortality, anti-feeding, or growth inhibition)
Procedure: Test compounds were applied by pipette from 10,000 ppm DMSO stock solutions into 24-well plates and mixed with agar. Lettuce seeds were placed onto the agar and the multi well plate was dosed by another plate which contained also agar. After 7 days the compound was absorbed by the roots and the lettuce grew into the lid plate. The lettuce leaves were then cut off into the lid plate. Spodoptera eggs were pipetted through a plastic stencil onto a humid gel blotting paper and the lid plate was closed with it. The samples were assessed for mortality, anti-feedant effect and growth inhibition in comparison to untreated samples 6 days after infestation.

CCSc1c(-c2nc3cc(C(F)(F)F)n(CC)c(=O)c3n2C)sc2ccccc12 [Compound A1, 5-ethyl-2-(3-ethylsulfanylbenzothiophen-2-yl)-3-methyl-6-(trifluoromethyl)imidazo[4,5-c]pyridin-4-one]
≥ 80%: percent control (mortality or growth inhibition) at 200 ppm (Diabrotica balteata) | percent control (mortality or growth inhibition) at 200 ppm (Plutella xylostella) | mortality at 200 ppm (Myzus persicae) | percent control (mortality or growth inhibition) at 200 ppm (Euschistus heros)

CCn1c(C(F)(F)F)cc2nc(-c3sc4ccccc4c3S(=O)(=O)CC)n(C)c2c1=O [Compound A2, 5-ethyl-2-(3-ethylsulfonylbenzothiophen-2-yl)-3-methyl-6-(trifluoromethyl)imidazo[4,5-c] pyridin-4-one]
≥ 80%: percent control (mortality or growth inhibition) at 200 ppm (Diabrotica balteata) | percent control (mortality or growth inhibition) at 200 ppm (Plutella xylostella) | mortality at 200 ppm (Spodoptera littoralis [1]) | mortality at 200 ppm (Myzus persicae) | percent control (mortality, anti-feedant effect or growth inhibition) at 12.5 ppm (Spodoptera littoralis [2]) | percent control (mortality or growth inhibition) at 200 ppm (Euschistus heros)
